Measurements: US20140017165A1, “DNA REPAIR ENZYME INHIBITOR NANOPARTICLES AND USES THEREOF” (priority 2011, published 2014)
pIC50: −log10 of the molar value.

Columns and labels:
ATM = ATM (Homo sapiens, UniProt Q13315); conditions: cited from earlier work
DNA-PK = DNA-PK (Homo sapiens, UniProt P78527); conditions: cited from earlier work
[1] = Maximum tolerated dose (MTD) of wortmannin formulations in non-tumor-bearing mice; conditions: mouse, in vivo, other: injected, mg/kg of wortmannin, in cremophor solution or encapsulated in nanoparticle (2% w/w)
Experimental: MTD, defined as the highest possible dose resulting in no animal deaths and less than 20% weight loss was evaluated for wortmannin formulations. Non-tumor-bearing mice (NOD/SCID, C57BL/6, CB6F1 and CD1) were injected with varying amounts of wortmannin nanoparticle and wortmannin in cremophor normalized to mg wortmannin injected/kg of mice body weight. The animals were weighed and observed daily for any change in physical activity. Weight loss greater than 20% and/or lethargy were interpreted as indications of toxicity and the mice were immediately euthanized.
Table 2 compares the maximum tolerated dose (MTD) of wortmannin in cremophor and wortmannin nanoparticle in different mouse strains.

[2] = Toxicity profile (hematologic toxicity, hepatotoxicity) in CD1 mice after tail vein i.v. injection; assay type: in vivo; conditions: single tail vein i.v.; for Hematologic Toxicity: Monocytes: normal range 0.1-1.5; for Hematologic Toxicity: Lymphocytes: normal range 0.5-5; for Hematologic Toxicity: Granulocytes: normal range 1.2-8; for Hematologic Toxicity: WBC: normal range 3.5-10; for Hepatotoxicity: ALT / Hepatotoxicity: AST: plasma, normal range 40-50 U/L
Experimental: CD1 mice were given tail vein i.v. injection with different wortmannin formulations (wortmannin nanoparticle or wortmannin in cremophor) at the indicated doses (⅕^th the MTD or 1/10th the MTD). After 24 h, submandibular bleeding was performed. Blood (100-200 ul) was collected in heparin coated tubes to prevent coagulation. Whole blood samples were immediately submitted for blood toxicity to the Animal Clinical Laboratory Core Facility at UNC. For liver toxicity studies, blood samples were centrifuged (15000×g for 10 minutes) to separate blood cells from the plasma and samples were submitted for analysis.
Table 3 and 4 show the toxicity profile in mice of wortmannin in cremophor and wortmannin nanoparticle.
Table 3 and 4. Toxicity profile in CD1 mice post i.v. injection of wortmannin formulations. Mice were treated with indicated doses of wortmannin or wortmannin nanoparticle containing an equivalent dose of wortmannin (2% w/w). (Single tail vein i.v. injection, toxicity profile 3 d post injection).

[3] = cited from earlier work
cancer cells = conditions: Bae et al. 2007, FIG. 6; cited from earlier work
[4] = 1/10th MTD of Wtmn (0.07 mg/kg)

ATM, sequence (Q13315 whole entry, species assumed): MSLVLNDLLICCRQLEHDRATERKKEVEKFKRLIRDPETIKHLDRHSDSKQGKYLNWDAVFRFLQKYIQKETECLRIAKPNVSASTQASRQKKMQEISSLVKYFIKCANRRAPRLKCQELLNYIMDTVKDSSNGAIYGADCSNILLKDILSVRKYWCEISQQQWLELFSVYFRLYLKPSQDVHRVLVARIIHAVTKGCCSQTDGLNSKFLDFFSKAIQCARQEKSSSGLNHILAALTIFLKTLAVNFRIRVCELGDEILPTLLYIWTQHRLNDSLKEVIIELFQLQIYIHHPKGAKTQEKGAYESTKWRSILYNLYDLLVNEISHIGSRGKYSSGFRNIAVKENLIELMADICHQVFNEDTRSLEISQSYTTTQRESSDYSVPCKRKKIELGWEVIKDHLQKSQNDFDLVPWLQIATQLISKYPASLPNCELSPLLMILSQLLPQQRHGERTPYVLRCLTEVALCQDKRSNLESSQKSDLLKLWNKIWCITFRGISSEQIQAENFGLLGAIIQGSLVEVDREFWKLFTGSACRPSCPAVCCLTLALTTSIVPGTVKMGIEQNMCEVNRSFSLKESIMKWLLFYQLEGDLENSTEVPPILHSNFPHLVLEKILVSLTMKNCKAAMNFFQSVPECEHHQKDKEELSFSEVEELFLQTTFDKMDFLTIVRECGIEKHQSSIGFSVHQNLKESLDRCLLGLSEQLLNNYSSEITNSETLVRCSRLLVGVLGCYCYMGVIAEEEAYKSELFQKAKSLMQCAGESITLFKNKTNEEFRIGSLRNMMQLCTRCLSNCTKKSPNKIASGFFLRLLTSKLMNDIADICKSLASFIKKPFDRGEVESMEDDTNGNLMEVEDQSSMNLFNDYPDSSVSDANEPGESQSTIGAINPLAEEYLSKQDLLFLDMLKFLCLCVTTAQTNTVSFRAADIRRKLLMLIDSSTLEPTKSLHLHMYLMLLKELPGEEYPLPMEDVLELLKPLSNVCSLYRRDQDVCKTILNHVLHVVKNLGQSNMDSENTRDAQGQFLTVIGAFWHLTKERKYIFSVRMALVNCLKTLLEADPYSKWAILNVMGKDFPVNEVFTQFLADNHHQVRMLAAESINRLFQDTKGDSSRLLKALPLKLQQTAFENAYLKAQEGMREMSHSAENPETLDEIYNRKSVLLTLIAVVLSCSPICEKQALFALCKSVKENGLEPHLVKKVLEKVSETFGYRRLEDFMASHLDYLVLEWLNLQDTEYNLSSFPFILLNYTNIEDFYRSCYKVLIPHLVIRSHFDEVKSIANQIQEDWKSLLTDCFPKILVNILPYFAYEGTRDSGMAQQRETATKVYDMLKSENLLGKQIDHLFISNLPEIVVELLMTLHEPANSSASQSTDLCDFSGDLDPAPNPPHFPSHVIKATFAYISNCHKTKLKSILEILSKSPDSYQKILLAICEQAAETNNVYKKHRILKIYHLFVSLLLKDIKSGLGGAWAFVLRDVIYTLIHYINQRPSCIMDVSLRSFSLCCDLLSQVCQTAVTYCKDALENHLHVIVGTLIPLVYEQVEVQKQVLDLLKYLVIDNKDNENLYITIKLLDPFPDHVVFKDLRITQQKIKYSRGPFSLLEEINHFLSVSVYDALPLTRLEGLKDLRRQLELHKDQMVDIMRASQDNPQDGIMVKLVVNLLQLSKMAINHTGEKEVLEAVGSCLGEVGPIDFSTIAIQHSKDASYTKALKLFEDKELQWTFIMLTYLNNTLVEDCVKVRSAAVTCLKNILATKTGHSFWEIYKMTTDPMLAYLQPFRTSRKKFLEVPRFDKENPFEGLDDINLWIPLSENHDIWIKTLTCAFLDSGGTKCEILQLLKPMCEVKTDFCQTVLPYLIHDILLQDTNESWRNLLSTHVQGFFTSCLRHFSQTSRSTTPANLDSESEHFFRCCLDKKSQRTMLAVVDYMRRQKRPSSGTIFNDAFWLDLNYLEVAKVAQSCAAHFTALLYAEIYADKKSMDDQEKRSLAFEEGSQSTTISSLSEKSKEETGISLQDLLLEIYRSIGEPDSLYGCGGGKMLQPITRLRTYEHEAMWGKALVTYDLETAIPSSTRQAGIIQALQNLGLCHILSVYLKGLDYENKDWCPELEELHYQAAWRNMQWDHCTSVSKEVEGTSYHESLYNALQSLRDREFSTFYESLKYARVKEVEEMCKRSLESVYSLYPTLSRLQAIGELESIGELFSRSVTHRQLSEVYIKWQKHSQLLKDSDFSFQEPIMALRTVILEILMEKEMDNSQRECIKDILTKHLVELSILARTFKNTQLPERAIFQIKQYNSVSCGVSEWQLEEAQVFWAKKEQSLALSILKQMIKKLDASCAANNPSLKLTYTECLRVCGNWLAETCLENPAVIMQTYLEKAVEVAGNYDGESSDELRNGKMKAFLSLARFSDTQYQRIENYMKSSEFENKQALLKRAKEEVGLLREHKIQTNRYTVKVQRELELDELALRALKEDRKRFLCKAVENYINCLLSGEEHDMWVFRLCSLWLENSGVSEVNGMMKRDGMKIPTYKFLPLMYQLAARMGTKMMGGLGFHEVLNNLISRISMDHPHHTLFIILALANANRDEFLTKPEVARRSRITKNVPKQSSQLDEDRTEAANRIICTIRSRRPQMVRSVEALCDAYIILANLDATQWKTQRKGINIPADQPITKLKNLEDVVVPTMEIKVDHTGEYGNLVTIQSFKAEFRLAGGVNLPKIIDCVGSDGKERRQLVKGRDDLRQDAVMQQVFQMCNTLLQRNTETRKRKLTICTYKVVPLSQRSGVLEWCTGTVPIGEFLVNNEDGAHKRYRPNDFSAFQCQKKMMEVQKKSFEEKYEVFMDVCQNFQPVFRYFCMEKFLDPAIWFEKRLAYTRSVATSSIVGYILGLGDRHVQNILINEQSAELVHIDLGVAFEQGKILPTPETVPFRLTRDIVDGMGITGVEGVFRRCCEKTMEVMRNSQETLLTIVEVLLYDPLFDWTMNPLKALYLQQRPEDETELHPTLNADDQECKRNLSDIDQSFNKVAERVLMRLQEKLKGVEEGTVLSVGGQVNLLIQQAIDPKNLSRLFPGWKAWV

## O=c1cc(-c2cccc3c2Sc2ccccc2S3)oc(N2CCOCC2)c1 [KU-55933, 2-morpholin-4-yl-6-thianthren-1-yl-pyran-4-one]
ATM
  inhibits ATM: low nanomolar concentrations

## O=c1cc(N2CCOCC2)oc2c(-c3cccc4c3sc3ccccc34)cccc12 [NU7441]
DNA-PK
  pIC50: 7.89

## COC[C@H]1OC(=O)c2coc3c2[C@@]1(C)C1=C(C3=O)[C@@H]2CCC(=O)[C@@]2(C)C[C@H]1OC(C)=O [Wortmannin, wortmannin]
[1]; C57BL/6 (Black) mice
  MTD: 0.7 mg/kg
[1]; CB6F1 (Brown) mice
  MTD: 0.5 mg/kg
[1]; CD1 (White) mice
  MTD: 0.7 mg/kg
[1]; NOD/SCID mice
  MTD: 0.7 mg/kg
[2]; 1/5th MTD of Wtmn (0.14 mg/kg)
  Hematologic Toxicity: Monocytes: 0.55 ± 0.07 103/μl
  Hematologic Toxicity: Lymphocytes: 0.4 ± 0.42 103/μl
  Hematologic Toxicity: Granulocytes: 0.8 ± 0.14 103/μl
  Hematologic Toxicity: WBC: 2.8 ± 0.28 103/μl
  Hepatotoxicity: ALT: 134 ± 17 U/L
  Hepatotoxicity: AST: 44 ± 3 U/L
[2]; [4]
  Hematologic Toxicity: Monocytes: 0.8 ± 0.42 103/μl
  Hematologic Toxicity: Lymphocytes: 0.9 ± 0.28 103/μl
  Hematologic Toxicity: Granulocytes: 2.4 ± 0.11 103/μl
  Hematologic Toxicity: WBC: 4.3 ± 0.13 103/μl
  Hepatotoxicity: ALT: 64 ± 11 U/L
  Hepatotoxicity: AST: 40 ± 7 U/L
[3]
  half-life in serum: approximately 10 minutes
Cancer cells
  cytotoxicity against cancer cells: unexpectedly low cytotoxicity
